Results published in patent US9851346B2, “Chemical sensitivity screening test” (BRYSON PATENTS INC., priority 2014, dated 2017).

Columns and labels:
[1] = Strip test screening of various compounds (Example 17, FIGS. 10-11; strip composition not stated)
Method: Now referring to FIG. 10, the pain relief medication—ASA, ibuprofen and acetaminophen were screened in the presence of alcohol (Ethanol)—50 ml water and 50 ml of 40% vol/vol ethanol.
Now referring to FIG. 11, various sweetening agents or table salts were dissolved in 75 ml of filtered water and exposed to UV lamp for 3 minutes or 5 minutes.

[2] = Strip test, Screening Composition 1 (Examples 1-5): fluorescence under UV after contact with dissolved specimen; conditions: FIG. 9; increasing amounts dissolved in 50 ml of filtered water; strip test from Example 1
Source text: (§1) Prior to testing, the specimen of substance is placed directly into a solvent. Preferably, the solvent is a solvent such as distilled or filtered water. If the specimen is in tablet form, it should be crushed into a powder form and then added to the solvent. If the specimen is in other form, it is preferably disaggregated into smaller pieces. The powder or pieces are then left to sit in the solvent until dissolved, for a period ranging from a few second to minutes, hours or even days before it may be tested with the composition and/or strip test of the present invention. Preferably, the contact with the solvent is at least eight hours. A liquid or gel form can be put directly into the solvent. […]
The contacted test strip is then immediately observed under UV light in a dark room. In the presence of a predicted adverse reaction of the substance, the strip test will show the absence of fluorescence, or the fluorescence will decrease, or even completely disappear over a short period of time (about 90 seconds). […] According to an embodiment, the degree by which fluorescence disappears after initial exposure to the substance may be used to quantify the relative adverseness of the substance. For example, a slow disappearance of fluorescence represents a less adverse substance than a substance for which the fluorescence disappears rapidly over the course of the testing procedure. […]

[3] = Strip test, Screening Composition 3 with Activator 1 / Activator 2 (Examples 11-16); conditions: FIGS. 5-8; 3 to 5 minutes under UV light
Method: Once the urine has been provided, it needs to be cooled to a temperature of 18.3° C. This is the best temperature for testing in this case. When preparing for the test, the urine should be divided into two different groups. The first group is to add Activator 1 and observe the reaction. The second group is to add Activator 2 and observe the reaction.
To perform the Activator 1 test, take approximately 20 ml of urine and add 5 ml of the activator solution. Allow this to sit for 20 minutes under ultraviolet light. Once the 20 minutes has passed, place the strip test under ultraviolet light in a darkened room and apply approximately 1 ml of urine/Activator 1 solution onto the strip test. After the urine/Activator 1 solution has been applied to the strip test, one simply observes the reaction. […]
See FIGS. 5 to 8 for comparisons of presence and absence of the contaminant biomarkers (protein crystals) reaction results. The degree by which fluorescence disappears after initial exposure of urine/activator to the strip test may be used to quantify the relative presence of the factor in the urine. For example, a slow disappearance of fluorescence represents less presence of the pesticide biomarker than a urine/activator sample for which the fluorescence disappears rapidly over the course of the testing procedure.

[4] = Strip test, Screening Composition 2 (Examples 6-10): fluorescence under UV after contact with dissolved specimen; conditions: FIGS. 3-4; observed under UV light, 3 to 5 minutes
Source text: as §1, with “substance to be tested” for “substance”, “powder” for “powder form”, “another” for “other”, “small” for “smaller”, “mixed in and/or dissolved” for “dissolved,”, “seconds” for “second”
For testing, the strip test prepared above is placed under UV light in a room with reduced lighting to allow the reaction to be observed, and is contacted with the specimen of substance prepared above. […] In the presence of a predicted adverse reaction of the substance, the strip test will show the absence of fluorescence or the fluorescence will decrease, or even completely disappear over the short period of time (about 3 to 5 minutes). […]
See FIGS. 3 and 4 for comparisons of adverse and non-adverse reaction results. The degree by which fluorescence disappears after initial exposure to the substance may be used to quantify the relative adverseness of the substance. […]

CC(=O)Oc1ccccc1C(=O)O [ASA]
Effect of the medication on adverseness in the presence of alcohol (strip test) [1]: diminishes adverseness to varying degrees | Adverseness indicated by strip test [2]: appears to be adverse

CCO [Alcohol, Ethanol]
Adverseness indicated by strip test, alcohol alone [1]: appears to be adverse

C[C@H](N)Cc1ccccc1 [Dextroamphetamine XR 5 mg, Dextroamphetamine]
Strip test appearance (bright yellow glow = does not cause an adverse effect; dark color = may cause an adverse effect) [3]: turns a dark color | Strip test appearance (bright yellow glow = does not cause an adverse effect; dark color = may cause an adverse effect) [4]: turns a dark color

[Cl-].[Na+] [Sodium chloride (iodized), Sodium chloride]
Adverseness / fluorescence indicated by strip test ([1]; FIG. 11, dissolved in 75 ml of filtered water, exposed to UV lamp for 3 minutes or 5 minutes): appears to not be adverse

OC[C@H]1O[C@H](O[C@]2(CCl)O[C@H](CCl)[C@@H](O)[C@@H]2O)[C@H](O)[C@@H](O)[C@H]1Cl [Sucralose]
Adverseness / fluorescence indicated by strip test, 5 minute exposure [1]: depleted fluorescence, indicative of a mild adverse effect | Adverseness indicated by strip test, initially [1]: initially not adverse

CC(=O)Nc1ccc(O)cc1 [acetaminophen]
Effect of the medication on adverseness in the presence of alcohol (strip test) [1]: diminishes adverseness to varying degrees

CCOc1nc2cccc(C(=O)O)c2n1Cc1ccc(-c2ccccc2-c2nnn[nH]2)cc1 [candesartan 8 mg, candesartan]
Strip test appearance (bright yellow glow = does not cause an adverse effect; dark color = may cause an adverse effect) [3]: glows a bright yellow color | Strip test appearance (bright yellow glow = does not cause an adverse effect; dark color = may cause an adverse effect) [4]: glows a bright yellow color

CC(C)Cc1ccc(C(C)C(=O)O)cc1 (stereo not shown) [ibuprofen]
Effect of the medication on adverseness in the presence of alcohol (strip test) [1]: diminishes adverseness to varying degrees | Adverseness indicated by strip test [2]: is not
